In ChEMBL document CHEMBL2021911 (Bioorg Med Chem Lett, 2012):

Assays:
[1] = biological target: T1, Muscarinic acetylcholine receptor M1 (Homo sapiens) (UniProt P11229); experiment: Agonist activity at human muscarinic M1 receptor at 30 uM relative to acetylcholine; format: functional
T1 sequence (whole entry): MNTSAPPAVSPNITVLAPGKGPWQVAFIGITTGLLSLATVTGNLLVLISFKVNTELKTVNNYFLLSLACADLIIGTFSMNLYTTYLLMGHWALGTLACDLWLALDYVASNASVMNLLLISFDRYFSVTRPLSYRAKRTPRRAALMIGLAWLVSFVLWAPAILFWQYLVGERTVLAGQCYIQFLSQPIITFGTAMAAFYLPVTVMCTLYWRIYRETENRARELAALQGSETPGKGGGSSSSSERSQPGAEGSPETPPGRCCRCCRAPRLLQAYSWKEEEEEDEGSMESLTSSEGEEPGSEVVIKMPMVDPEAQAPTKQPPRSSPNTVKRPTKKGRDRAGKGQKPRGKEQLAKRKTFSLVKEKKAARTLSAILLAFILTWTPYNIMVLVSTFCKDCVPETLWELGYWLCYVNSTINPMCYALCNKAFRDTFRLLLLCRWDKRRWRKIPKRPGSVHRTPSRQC

[2] = biological target: T2, Muscarinic acetylcholine receptor M1 (Homo sapiens, UniProt P11229); experiment: Agonist activity at human muscarinic M1 receptor; format: functional
T2 sequence (P11229 whole entry): T1 sequence (whole entry)

EC50 [2] | SMILES | Activity [1] | EC50 ([2]; read-out: EC50)
 | CCOC(=O)N1C2CCC1CC(N1CCC[C@H](NC(=O)c3ccccc3C)C1)C2 (mixture of isomers) | 52% | 2100 nM
 | CCOC(=O)N1C2CCC1CC(N1CC[C@@H](NC(=O)c3ccccc3C)C1)C2 (mixture of isomers) | 55% | 1200 nM
 | CCOC(=O)N1[C@@H]2CC[C@H]1C[C@H](NCCNC(=O)C1CCCCC1)C2 | 34% | 1500 nM
 | CCOC(=O)N1[C@@H]2CC[C@H]1C[C@H](NCCNC(=O)N1CCCC1)C2 | 11% | > 10000 nM
 | CCOC(=O)N1C2CCC1CC(N1CC[C@@H](NC(=O)c3ccccc3)C1)C2 (mixture of isomers) | 62% | 320 nM
 | CCOC(=O)N1C2CCC1CC(N1CC(NC(=O)c3ccccc3)C1)C2 (mixture of isomers) | 34% | 2200 nM
 | CC(C)C(=O)N1[C@@H]2CC[C@H]1C[C@H](NCCNC(=O)c1ccccc1)C2 | 23% | 5400 nM
 | CCOC(=O)N1C[C@H]2CC[C@@H](C1)[C@H]2NCCNC(=O)N1CCCCC1 | 9% | 690 nM
 | CCOC(=O)N1[C@@H]2CC[C@H]1C[C@H](NCCNC(=O)c1cccc(OC)c1)C2 | 33% | 3600 nM
 | CCOC(=O)N1C2CCC1CC(N1CCC[C@H](NC(=O)c3ccccc3)C1)C2 (mixture of isomers) | 12% | > 10000 nM
Not Active | CCOC(=O)N1[C@@H]2CC[C@H]1C[C@H](NCCNC(=O)c1ccc[nH]1)C2 |  | 
 | C=CCOC(=O)N1[C@@H]2CC[C@H]1C[C@H](NCCNC(=O)c1ccccc1)C2 | 40% | 2000 nM
 | CCOC(=O)N1C2CCC1CC(N1CC[C@H](NC(=O)c3ccccc3C)C1)C2 (mixture of isomers) | 22% | > 10000 nM
 | CCOC(=O)N1C[C@H]2CC[C@@H](C1)[C@H]2NCCNC(=O)c1cccs1 | 54% | 170 nM
 | CCOC(=O)N1[C@@H]2CC[C@H]1C[C@H](NCCNC(=O)c1cccs1)C2 | 33% | 1000 nM
Not Active | CCS(=O)(=O)N1[C@@H]2CC[C@H]1C[C@H](NCCNC(=O)c1ccccc1)C2 |  | 
 | CCOC(=O)N1C2CCC1CC(N1CC[C@H](NC(=O)c3ccccc3)C1)C2 (mixture of isomers) | 39% | 1200 nM
Not Active | CCOC(=O)N1[C@@H]2CC[C@H]1C[C@H](NCCNS(=O)(=O)c1cccc(OC)c1)C2 |  | 
 | O=C(NCCN[C@@H]1C[C@H]2CC[C@@H](C1)N2C(=O)OCc1ccccc1)c1ccccc1 | 7% | > 10000 nM
 | CCOC(=O)N1C[C@H]2CC[C@@H](C1)[C@H]2NCCNC(=O)N1CCOCC1 | 11% | > 10000 nM
 | CCOC(=O)N1[C@@H]2CC[C@H]1C[C@H](NCCNC(=O)c1ccncc1)C2 | 6% | > 10000 nM
 | CCOC(=O)N1CC[C@H]2[C@H](CCCN2CCNC(=O)c2ccccc2)C1 (relative stereo) | 13% | 1200 nM
Not Active | CN(C)C(=O)N1[C@@H]2CC[C@H]1C[C@H](NCCNC(=O)c1ccccc1)C2 |  | 
Not Active | CCC(=O)N1[C@@H]2CC[C@H]1C[C@H](NCCNC(=O)c1ccccc1)C2 |  | 
Not Active | CS(=O)(=O)N1[C@@H]2CC[C@H]1C[C@H](NCCNC(=O)c1ccccc1)C2 |  | 
Not Active | CCOC(=O)N1[C@@H]2CC[C@H]1C[C@H](NCCNC(=O)c1ccccc1C(F)(F)F)C2 |  | 
Not Active | CCOC(=O)N1[C@@H]2CC[C@H]1C[C@H](NCCNC(=O)NC1CC1)C2 |  | 
Not Active | CCCC(=O)N1[C@@H]2CC[C@H]1C[C@H](NCCNC(=O)c1ccccc1)C2 |  | 

SMILES | EC50 [2] | Activity [1] | EC50 ([2]; read-out: EC50)
O=C(NCCN[C@@H]1C[C@H]2CC[C@@H](C1)N2C(=O)Oc1ccccc1)c1ccccc1 | Not Active |  | 
